Experimental findings from ChEMBL document CHEMBL1201862, “PubChem BioAssay data set” (2004) are described below.

Test systems include COLO 205; TK-10; BT-549; UACC-257; SF-295; SW-620; SK-MEL-2; RXF 393; NCI-H460; RPMI-8226; NCI-H522; SF-539; UO-31; MDA-MB-435; KM12; MDA-MB-231; ACHN; PC-3; NCI/ADR-RES; OVCAR-5.
What all share (experiment): NCI anticancer screen, dose series, 48 h

Each structure is given as a SMILES string.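 Compound exposure: 48 hours, 5 concentrations, 96-well plates. Here, GI50 denotes the concentration required for 50% inhibition of growth.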 The source made the active and inactive calls. Rule as the data show it: active = GI50 up to about 1.1 µM and inactive = higher. Where only a bound is given, the exact number is not on record here.

For `CNC(=S)N/N=C/c1ccc([N+](=O)[O-])s1`, the GI50 is 1.81 µM (inactive) in the assay with COLO 205; > 10 µM (inactive) in the assay with TK-10; > 10 µM (inactive) with BT-549; > 10 µM (inactive) in the assay with UACC-257; > 10 µM (inactive) with SF-295; > 10 µM (inactive) with SW-620. The GI50 in the assay on SK-MEL-2 was > 10 µM (inactive); in the assay on RXF 393, > 10 µM (inactive); in the assay on NCI-H460 it was 6.67 µM (inactive); in the assay on RPMI-8226, > 10 µM (inactive); with NCI-H522, > 10 µM (inactive); with SF-539, > 10 µM (inactive). The GI50 in the assay with UO-31 is > 10 µM (inactive); with MDA-MB-435 it was > 10 µM (inactive); in the assay with KM12, 3.99 µM (inactive); with MDA-MB-231, > 10 µM (inactive); in the assay with ACHN, > 10 µM (inactive); in the assay on PC-3 it was 3.01 µM (inactive). Further, the GI50 in the assay with NCI/ADR-RES and with OVCAR-5 was > 10 µM (inactive) throughout.

Regarding `N#CC(NC12CC3CC(CC(C3)C1)C2)c1ccc2c(c1)OCO2` (stereo not given), the GI50 with COLO 205, with TK-10, in the assay with BT-549, with UACC-257, with SF-295 and in the assay with SW-620 was > 100 µM (inactive) throughout. In addition, the GI50 in the assay with SK-MEL-2, with RXF 393, in the assay with NCI-H460, in the assay on RPMI-8226, in the assay on NCI-H522 and in the assay on SF-539 was > 100 µM (inactive) in each case. For the same molecule, the GI50 in the assay on UO-31, in the assay with MDA-MB-435, in the assay with KM12, in the assay on MDA-MB-231, with ACHN and in the assay with PC-3 was > 100 µM (inactive) throughout. In addition, the GI50 in the assay with NCI/ADR-RES and in the assay with OVCAR-5 was > 100 µM (inactive) in each case.

For the molecule `CCOC(=O)C(=Cc1ccccc1Br)C(=O)OCC`, the GI50 with COLO 205 was 2.8 µM (inactive); in the assay with TK-10, 3.47 µM (inactive); with BT-549 it was 2.51 µM (inactive); with UACC-257 it was 3.58 µM (inactive); with SF-295, 3.26 µM (inactive); in the assay with SW-620, 1.97 µM (inactive). Also, the GI50 in the assay with SK-MEL-2 is 2.14 µM (inactive); with RXF 393, 2.1 µM (inactive); in the assay with NCI-H460, 3.26 µM (inactive); in the assay on RPMI-8226, 2.23 µM (inactive); with NCI-H522 it was 1.64 µM (inactive); in the assay with SF-539, 2.34 µM (inactive). For the same molecule, the GI50 in the assay with UO-31 is 2.25 µM (inactive); with MDA-MB-435 it was 1.69 µM (inactive); in the assay on KM12, 1.62 µM (inactive); in the assay on MDA-MB-231, 6.41 µM (inactive); with ACHN, 2.59 µM (inactive); in the assay on PC-3 it was 2.93 µM (inactive). The GI50 in the assay on NCI/ADR-RES was 4.65 µM (inactive); in the assay with OVCAR-5, 6.5 µM (inactive).

With `C[C@@H](C[C@@H](O)[C@H](O)C(C)(C)O)[C@H]1CC=C2[C@]3(C)[C@H](O)C[C@H]4C(C)(C)[C@H](O)CC[C@]4(C)[C@H]3CC[C@@]21C`, the GI50 in the assay on COLO 205 was 13.7 µM (inactive); in the assay with TK-10 it was 18 µM (inactive); with BT-549, 17.1 µM (inactive); with UACC-257, 16.1 µM (inactive); with SF-295, 15 µM (inactive); in the assay on SW-620, 17.3 µM (inactive). Moreover, the GI50 was 14 µM (inactive) in the assay on SK-MEL-2; 17 µM (inactive) in the assay on RXF 393; 15.8 µM (inactive) in the assay on NCI-H460; 13.9 µM (inactive) in the assay on RPMI-8226; 14 µM (inactive) in the assay with NCI-H522; 18.1 µM (inactive) with SF-539. The GI50 with UO-31 was 15.4 µM (inactive); with MDA-MB-435, 16.4 µM (inactive); in the assay with KM12, 15.7 µM (inactive); with MDA-MB-231, 13.8 µM (inactive); in the assay with ACHN, 14.3 µM (inactive); in the assay with PC-3 it was 14.3 µM (inactive). Also, the GI50 in the assay with NCI/ADR-RES was 13.8 µM (inactive); with OVCAR-5, 19.2 µM (inactive).

On to `O=S1(=O)C(c2ccccc2)=C(O)c2ccccc21`, for which the GI50 in the assay with COLO 205, in the assay with TK-10, with BT-549, in the assay on UACC-257, in the assay on SF-295 and with SW-620 was > 100 µM (inactive) in each case. The GI50 with SK-MEL-2 was > 100 µM (inactive); in the assay with RXF 393, 35.8 µM (inactive); with NCI-H460, > 100 µM (inactive); with RPMI-8226, > 100 µM (inactive); in the assay on NCI-H522, > 100 µM (inactive); in the assay on SF-539 it was > 100 µM (inactive). For the same molecule, the GI50 in the assay with UO-31 was > 100 µM (inactive); in the assay on MDA-MB-435 it was > 100 µM (inactive); in the assay with KM12, > 100 µM (inactive); in the assay with MDA-MB-231 it was 7.91 µM (inactive); in the assay with ACHN, > 100 µM (inactive); in the assay on PC-3, > 100 µM (inactive). Further, the GI50 in the assay with NCI/ADR-RES and with OVCAR-5 was > 100 µM (inactive) in each case.

As to `CCN(CC)C(=S)SC(=S)N(CC)CC`, the GI50 was 18.3 µM (inactive) with COLO 205; > 51.2 µM (inactive) in the assay on TK-10; 27.3 µM (inactive) in the assay on BT-549; 41.6 µM (inactive) in the assay on UACC-257; 39.8 µM (inactive) in the assay with SF-295; 28.6 µM (inactive) in the assay with SW-620. The GI50 in the assay on SK-MEL-2 is 31.3 µM (inactive); with RXF 393, 36.6 µM (inactive); in the assay with NCI-H460, 2.3 µM (inactive); with RPMI-8226 it was 15.6 µM (inactive); in the assay with NCI-H522, 0.0951 µM (active); with SF-539, > 62.8 µM (inactive). Also, the GI50 with UO-31 is 30.3 µM (inactive); with MDA-MB-435, 34.1 µM (inactive); in the assay on KM12, 28.1 µM (inactive); in the assay on MDA-MB-231, 32.9 µM (inactive); in the assay with ACHN it was 35.4 µM (inactive); in the assay on PC-3, 38.1 µM (inactive). Besides, the results for the GI50 in the assay with NCI/ADR-RES and in the assay with OVCAR-5 were 42.5 µM (inactive) and > 100 µM (inactive), respectively.

Take `C=C1C(=O)O[C@H]2C3C(=C(C)CC[C@@H]12)C(=O)[C@@H]1OC31C` (stereo not given in full): the GI50 in the assay on COLO 205 is 1.2 µM (inactive); in the assay with TK-10, 2.27 µM (inactive); in the assay with BT-549, 1.95 µM (inactive); with UACC-257, 2.24 µM (inactive); in the assay with SF-295, 14 µM (inactive); with SW-620, 0.685 µM (active). The GI50 was 4.48 µM (inactive) in the assay on SK-MEL-2; 1.56 µM (inactive) in the assay with RXF 393; 10.1 µM (inactive) in the assay on NCI-H460; 0.746 µM (active) in the assay with RPMI-8226; 1.53 µM (inactive) in the assay with NCI-H522; 2.43 µM (inactive) in the assay on SF-539. The GI50 in the assay with UO-31 was 4.89 µM (inactive); in the assay on MDA-MB-435 it was 2.72 µM (inactive); with KM12, 5.73 µM (inactive); with MDA-MB-231 it was 3.94 µM (inactive); in the assay with ACHN it was 2.6 µM (inactive); with PC-3, 2.69 µM (inactive). The GI50 is 3.13 µM (inactive) in the assay on NCI/ADR-RES and 10.4 µM (inactive) in the assay with OVCAR-5.
